Test results from the NIST ThermoML archive (doi:10.1016/j.tca.2015.09.023).
± gives the expanded uncertainty stated by the source.

Assays:
[1] = Crystal; DTA
[2] = Molar enthalpy of transition or fusion; settings: Crystal; DSC

Normal melting temperature [1] [°C]	Molar enthalpy of transition or fusion [2] [kcal/mol]	Compound
277.1 ± 0.4	5.83 ± 0.167	CN1C(=O)N[C@H]2[C@@H]1NC(=O)N2C (racemic)
261.6 ± 0.4	8.15 ± 0.191	CN1C(=O)N[C@@H]2NC(=O)N[C@@H]21 (racemic)
92.6 ± 0.4	4.8 ± 0.167	CN1C(=O)N[C@H]2[C@@H]1N(C)C(=O)N2C (racemic)
